Tested on: 460 barcoded cancer cell lines
Experiment: PRISM pooled barcoded cancer cell line growth screen, 10-point dose-response, 5 days, AUC
Type: cell-based
Design: scale not given here
Excerpt: Several small molecule inhibitors of distinct protein domains of EP300/CBP are available, though the majority target the histone acetyltransferase domain (HAT) or bromodomain (BRD)[5],[10],[21],[22]. […] We used these tools to investigate the relative contribution of the EP300/CBP BRD or HAT domain to tumor cell growth (Fig. 1a). To do so, we performed 10-point, dose-response growth assays using mixed pools of 460 barcoded cancer cell lines, over five days of treatment in vitro[33],[34]. Growth was measured using an area-under-the-curve (AUC) approach (Supplementary Table 1, Supplementary Fig. 1a). […] Given potential differences in compound penetration and solubility, and to compare the relative cell line and tumor-specific effects of these two compounds in assays performed non-simultaneously, we performed a median normalization of each dataset (Supplementary Table 2).

## CO[C@H]1CC[C@H](n2c([C@@H]3CCCC(=O)N3c3ccc(F)c(F)c3)nc3cc(-c4c(C)noc4C)ccc32)CC1 [CCS1477]
22RV1, Prostate Cancer
  AUC: 0.7824
42MGBA, Glioma
  AUC: 0.959
143B, Osteosarcoma
  AUC: 0.7756
639V, Bladder Cancer
  AUC: 1
647V, Bladder Cancer
  AUC: 0.9387
697, B-cell Leukemia
  AUC: 0.8421
769P, Kidney Cancer
  AUC: 0.866
5637, Bladder Cancer
  AUC: 0.9709
8305C, Thyroid Cancer
  AUC: 0.9842
A101D, Melanoma
  AUC: 0.9949
A204, Rhabdoid
  AUC: 0.6935
A253, Head and Neck Cancer
  AUC: 0.8895
A375, Melanoma
  AUC: 0.896
A427, Lung Cancer
  AUC: 0.8534
A673, Ewing Sarcoma
  AUC: 0.974
A1207, Glioblastoma
  AUC: 1
ACHN, Kidney Cancer
  AUC: 0.9303
AM38, Glioblastoma
  AUC: 0.9422
AN3CA, Endometrial/Uterine Cancer
  AUC: 0.9421
AU565, Breast Cancer
  AUC: 0.9734
BDCM, AML
  AUC: 0.9113
BEN, Lung Cancer
  AUC: 0.7123
BFTC905, Bladder Cancer
  AUC: 0.9629
BHT101, Thyroid Cancer
  AUC: 0.7216
BICR16, Head and Neck Cancer
  AUC: 0.7276
BICR18, Head and Neck Cancer
  AUC: 0.7534
BICR22, Head and Neck Cancer
  AUC: 0.8618
BICR31, Head and Neck Cancer
  AUC: 0.8654
BICR56, Head and Neck Cancer
  AUC: 0.8942
BT16, Rhabdoid
  AUC: 0.8481
BT474, Breast Cancer
  AUC: 0.9512
C32, Melanoma
  AUC: 0.5879
C8166, Lymphoma
  AUC: 0.8246
CADOES1, Ewing Sarcoma
  AUC: 0.8986
CAKI1, Kidney Cancer
  AUC: 0.9906
CAL27, Head and Neck Cancer
  AUC: 0.9982
CAL54, Kidney Cancer
  AUC: 0.8391
CAL62, Thyroid Cancer
  AUC: 0.9564
CAL78, Chondrosarcoma
  AUC: 0.8691
CAL120, Breast Cancer
  AUC: 0.9482
CAOV3, Ovarian Cancer
  AUC: 0.8478
CBAGPN, Ewing Sarcoma
  AUC: 0.8224
CCK81, Colon/Colorectal Cancer
  AUC: 0.8227
CHL1, Melanoma
  AUC: 0.6111
CHLA06ATRT, Rhabdoid
  AUC: 1
CHLA10, Ewing Sarcoma
  AUC: 0.9814
CHLA15, Neuroblastoma
  AUC: 0.7397
CHLA57, Ewing Sarcoma
  AUC: 0.9985
CHP212, Neuroblastoma
  AUC: 0.8537
CI1, B-cell Lymphoma
  AUC: 0.9278
CJM, Melanoma
  AUC: 0.8842
CL11, Colon/Colorectal Cancer
  AUC: 0.761
CL34, Colon/Colorectal Cancer
  AUC: 0.9427
CMLT1, CML
  AUC: 0.8343
COGAR359, Rhabdoid
  AUC: 1
COGE352, Ewing Sarcoma
  AUC: 0.998
COLO320, Colon/Colorectal Cancer
  AUC: 0.8831
COLO678, Colon/Colorectal Cancer
  AUC: 0.8848
COLO783, Melanoma
  AUC: 0.9736
COLO792, Melanoma
  AUC: 0.8076
CORL23, Lung Cancer
  AUC: 0.9125
CORL105, Lung Cancer
  AUC: 0.8782
COV318, Ovarian Cancer
  AUC: 0.899
COV434, Ovarian Cancer
  AUC: 0.9687
CW2, Colon/Colorectal Cancer
  AUC: 0.9939
CW9019, Rhabdomyosarcoma
  AUC: 0.9021
DAOY, Medulloblastoma
  AUC: 0.8871
DEL, Lymphoma
  AUC: 1
DETROIT562, Head and Neck Cancer
  AUC: 0.9177
DKMG, Glioblastoma
  AUC: 1
DL, Rhabdoid
  AUC: 0.7415
DMS53, Lung Cancer
  AUC: 0.712
DMS273, Lung Cancer
  AUC: 1
DND41, T-acute leukemia
  AUC: 0.9395
DU145, Prostate Cancer
  AUC: 0.9501
DU4475, Breast Cancer
  AUC: 0.7484
DV90, Lung Cancer
  AUC: 0.9154
EB1, Lymphoma
  AUC: 0.7489
EBC1, Lung Cancer
  AUC: 0.7317
ECC10, Gastric Cancer
  AUC: 0.9776
ECGI10, Esophageal Cancer
  AUC: 0.9953
EFE184, Endometrial/Uterine Cancer
  AUC: 0.7698
EFM19, Breast Cancer
  AUC: 0.7512
EFO21, Ovarian Cancer
  AUC: 0.9901
EM2, CML
  AUC: 0.9432
EN, Endometrial/Uterine Cancer
  AUC: 1
ES2, Ovarian Cancer
  AUC: 0.9355
ESS1, Endometrial/Uterine Cancer
  AUC: 0.9966
EW8, Ewing Sarcoma
  AUC: 1
EWS502, Ewing Sarcoma
  AUC: 0.7102
FADU, Head and Neck Cancer
  AUC: 0.8918
FTC133, Thyroid Cancer
  AUC: 0.9601
FTC238, Thyroid Cancer
  AUC: 0.9961
G292CLONEA141B1, Osteosarcoma
  AUC: 1
G361, Melanoma
  AUC: 0.6349
G401, Rhabdoid
  AUC: 0.8875
G402, Rhabdoid
  AUC: 0.8394
GB1, Glioblastoma
  AUC: 0.7767
GCT, Pleomorphic Sarcoma
  AUC: 0.9612
GI1, Glioblastoma
  AUC: 0.7855
GOS3, Glioblastoma
  AUC: 0.984
GP2D, Colon/Colorectal Cancer
  AUC: 0.7748
GRANTA519, Lymphoma
  AUC: 0.9571
GSS, Gastric Cancer
  AUC: 0.646
HARA, Lung Cancer
  AUC: 0.9612
HCC33, Lung Cancer
  AUC: 0.9669
HCC38, Breast Cancer
  AUC: 0.8868
HCC44, Lung Cancer
  AUC: 0.9456
HCC56, Colon/Colorectal Cancer
  AUC: 0.9605
HCC78, Lung Cancer
  AUC: 0.8972
HCC95, Lung Cancer
  AUC: 0.9968
HCC515, Lung Cancer
  AUC: 0.7803
HCC1419, Breast Cancer
  AUC: 0.8162
HCC1428, Breast Cancer
  AUC: 0.8123
HCC1438, Lung Cancer
  AUC: 0.9027
HCC1806, Breast Cancer
  AUC: 0.9831
HCC1937, Breast Cancer
  AUC: 1
HCC2108, Lung Cancer
  AUC: 0.7949
HCC4006, Lung Cancer
  AUC: 0.9703
HCT116, Colon/Colorectal Cancer
  AUC: 0.9792
HDMYZ, Lymphoma
  AUC: 0.8423
HDQP1, Breast Cancer
  AUC: 0.939
HEC1B, Endometrial/Uterine Cancer
  AUC: 0.8393
HEC6, Endometrial/Uterine Cancer
  AUC: 0.9929
HEC50B, Endometrial/Uterine Cancer
  AUC: 0.7901
HEL9217, AML
  AUC: 0.6249
HEL, AML
  AUC: 0.5914
HEP3B217, Liver Cancer
  AUC: 0.9151
HEPG2, Liver Cancer
  AUC: 0.7882
HEYA8, Ovarian Cancer
  AUC: 0.9726
HGC27, Gastric Cancer
  AUC: 0.9831
HH, Lymphoma
  AUC: 0.8948
HOS, Osteosarcoma
  AUC: 0.9628
HPBALL, T-acute leukemia
  AUC: 0.9516
HS294T, Melanoma
  AUC: 0.9659
HS766T, Pancreatic Cancer
  AUC: 0.9722
HSC2, Head and Neck Cancer
  AUC: 0.9695
HSC3, Head and Neck Cancer
  AUC: 0.9769
HT29, Colon/Colorectal Cancer
  AUC: 0.658
HT115, Colon/Colorectal Cancer
  AUC: 0.9413
HT144, Melanoma
  AUC: 1
HT1197, Bladder Cancer
  AUC: 0.9485
HT, B-cell Lymphoma
  AUC: 0.7078
HUCCT1, Bile Duct Cancer
  AUC: 0.9905
HUG1N, Gastric Cancer
  AUC: 0.95
HUH1, Liver Cancer
  AUC: 0.8468
HUH7, Liver Cancer
  AUC: 1
HUH28, Bile Duct Cancer
  AUC: 0.9991
HUPT3, Pancreatic Cancer
  AUC: 0.8687
HUPT4, Pancreatic Cancer
  AUC: 0.7771
HUT78, Lymphoma
  AUC: 0.9925
IALM, Lung Cancer
  AUC: 0.7856
IGR37, Melanoma
  AUC: 1
IGROV1, Ovarian Cancer
  AUC: 0.9601
IM95, Gastric Cancer
  AUC: 0.8194
IPC298, Melanoma
  AUC: 0.9388
ISHIKAWAHERAKLIO02ER, Endometrial/Uterine Cancer
  AUC: 0.9971
ISTMES1, Lung Cancer
  AUC: 0.9282
J82, Bladder Cancer
  AUC: 1
JEKO1, Lymphoma
  AUC: 0.9796
JHH1, Liver Cancer
  AUC: 0.7664
JHH4, Liver Cancer
  AUC: 0.9641
JHH5, Liver Cancer
  AUC: 0.6818
JHH7, Liver Cancer
  AUC: 0.9818
JHOC5, Ovarian Cancer
  AUC: 1
JHUEM7, Endometrial/Uterine Cancer
  AUC: 0.8239
JVM3, B-cell Leukemia
  AUC: 0.9481
K029AX, Melanoma
  AUC: 0.7327
KALS1, Glioblastoma
  AUC: 0.99
KARPAS620, Myeloma
  AUC: 0.9486
KATOIII, Gastric Cancer
  AUC: 0.9783
KCL22, CML
  AUC: 0.7293
KD, Rhabdoid
  AUC: 0.7052
KE37, T-acute leukemia
  AUC: 0.8049
KE39, Gastric Cancer
  AUC: 1
KELLY, Neuroblastoma
  AUC: 0.8609
KMBC2, Bladder Cancer
  AUC: 0.8012
KMS11, Myeloma
  AUC: 0.8305
KMS12BM, Myeloma
  AUC: 0.8083
KMS18, Myeloma
  AUC: 0.8881
KMS21BM, Myeloma
  AUC: 0.9427
KMS28BM, Myeloma
  AUC: 0.7058
KMS34, Myeloma
  AUC: 0.8725
KNS42, Glioblastoma
  AUC: 0.9251
KNS60, Glioblastoma
  AUC: 0.8942
KNS62, Lung Cancer
  AUC: 0.9516
KP3, Pancreatic Cancer
  AUC: 1
KPNYN, Neuroblastoma
  AUC: 0.9626
KS1, Glioma
  AUC: 0.7921
KU1919, Bladder Cancer
  AUC: 0.7361
KYM1, Rhabdoid
  AUC: 0.9475
KYSE30, Esophageal Cancer
  AUC: 0.989
KYSE150, Esophageal Cancer
  AUC: 0.988
KYSE410, Esophageal Cancer
  AUC: 0.9549
KYSE510, Esophageal Cancer
  AUC: 0.928
KYSE520, Esophageal Cancer
  AUC: 0.9953
LAMA84, CML
  AUC: 0.8874
LC1SQSF, Lung Cancer
  AUC: 0.9937
LCLC103H, Lung Cancer
  AUC: 0.945
LI7, Liver Cancer
  AUC: 0.8469
LK2, Lung Cancer
  AUC: 0.7132
LMSU, Gastric Cancer
  AUC: 0.9918
LN18, Glioblastoma
  AUC: 0.9905
LNCAPCLONEFGC, Prostate Cancer
  AUC: 0.7183
LOUNH91, Lung Cancer
  AUC: 1
LOVO, Colon/Colorectal Cancer
  AUC: 0.6312
LOXIMVI, Melanoma
  AUC: 0.8683
LS180, Colon/Colorectal Cancer
  AUC: 0.9873
LS411N, Colon/Colorectal Cancer
  AUC: 0.9732
LUDLU1, Lung Cancer
  AUC: 0.9677
LXF289, Lung Cancer
  AUC: 0.9728
M059K, Glioblastoma
  AUC: 0.8113
MALME3M, Melanoma
  AUC: 0.7988
MC116, B-cell Lymphoma
  AUC: 0.9377
MCAS, Ovarian Cancer
  AUC: 0.9952
MCF7, Breast Cancer
  AUC: 0.7913
MDAMB175VII, Breast Cancer
  AUC: 0.9996
MDAMB231, Breast Cancer
  AUC: 0.8811
MDAMB361, Breast Cancer
  AUC: 0.7401
MDAMB436, Breast Cancer
  AUC: 1
MDAMB453, Breast Cancer
  AUC: 0.5759
MDAMB468, Breast Cancer
  AUC: 1
MDST8, Colon/Colorectal Cancer
  AUC: 0.9162
MELHO, Melanoma
  AUC: 0.7224
MESSA, Uterine Sarcoma
  AUC: 0.7646
MFE280, Endometrial/Uterine Cancer
  AUC: 0.8205

— publication PMC11045757, “Group 3 medulloblastoma transcriptional networks collapse under domain specific EP300/CBP inhibition” (Nature Communications, 2024)
